Test system: Cryptosporidium parvum
Assay: MMV: Cryptosporidium parvum oocysts (Iowa Strain) were prepared for use by treatment with 10 mM HCl (37 degrees C, 10 min) followed by 2 mM sodium taurocholate in phosphate-buffered saline (PBS) with Ca2+ and Mg2+ (16 degrees C, 10 min) in order to stimulate excystation. The high-throughput screen was carried out by inoculating >90% confluent human ileocecal adenocarcinoma (HCT-8) cells (ATCC) with ~5.5 x 10^3 primed oocysts per well. Experimental compounds or DMSO (vehicle) were added three hours after infection, and cells were incubated for 48 hours.
Format: functional

Compound	Inhibition
Nc1nc(Nc2cccc(F)c2)nc2ccccc12	22.76%
CC1CCN(Cc2ccc(NC(=O)c3cc4ccc5cccnc5c4[nH]3)cc2)CC1	-17.38%
Cc1cc(C)c2c(c1)OCN(Cc1ccccc1Cl)C2	-66.49%
O=c1nc(C=Cc2ccc(Br)cc2)oc2ccccc12	36.68%
COc1ccc(C=C2SC(Nc3ccc(F)cc3)=NC2=O)c(OC)c1	36.03%
CN1c2ccccc2N(C)C1c1ccc2c(c1)OCO2	-58.41%
COc1cccc(C(=O)NC(c2ccc(C)cc2)c2cc(Cl)c3cccnc3c2O)c1 (stereo unspecified)	59.18%
Cl.c1ccc2c(NCCCCCCNc3c4c(nc5ccccc35)CCCC4)c3c(nc2c1)CCCC3	13.18%
CC(=O)NCCc1nc2ccccc2n1Cc1ccc(C(C)C)cc1	0.2505%
CCCc1c(CC)c(=N)c2ccccc2n1C	-20.98%
C=CC12CCN(CC1)C(C(O)c1ccnc3ccc(OC)cc13)C2.Cl (stereo unspecified)	1.246%
Oc1ccccc1CN1CCC2(CCCN(Cc3ccccc3F)C2)C1 (stereo unspecified)	-2.723%
CC(O)(c1ccc(Cl)cc1)C(CN1CCCCC1)c1ccccc1.Cl (stereo unspecified)	15.77%
Cc1ccc(Cl)cc1N1CCN(CCCNC(=O)C2CCN(c3nc4ccccc4[nH]3)CC2)CC1	-53.53%
COc1ccc(C(C)=O)cc1N1C(=O)C2C(C1=O)C1(c3ccccc3)C(=O)C2(c2ccccc2)C(c2ccc(C)cc2)=C1c1ccc(C)cc1 (stereo unspecified)	5.543%
CC1CCCCN1CCCNC(=O)c1ccc2c(c1)sc1nc(-c3ccc(F)cc3)cn12 (stereo unspecified)	7.741%
Cc1cc(NC(=O)C2c3ccccc3C(=O)N(CC(C)C)C2c2cccs2)no1 (stereo unspecified)	-19.27%
Cl.Oc1ccccc1CNCC12CC3CC(CC(C3)C1)C2	-10.2%
COc1ccc(-c2cc3c(nn2)-c2ccccc2C3=O)cc1	-19.28%
CN(C)CCCNCc1ccc(-c2ccc(F)c(Cl)c2)o1.Cl	-9.329%
O=C(NCc1ccco1)C1CCN(S(=O)(=O)c2ccc(Cl)cc2)CC1	-53.31%
Nc1ccc(-c2nc3cc(Oc4ccc(Oc5ccc6[nH]c(-c7ccc(N)cc7)nc6c5)cc4)ccc3[nH]2)cc1	-48.18%
COc1ccc(C2NCCc3c2[nH]c2ccccc32)cc1CN1CCN(c2ccc(F)cc2)CC1.Cl (stereo unspecified)	-2.167%
Cc1ccc(C2CC(C(F)(F)F)n3nc(C(=O)N4CCN(C(c5ccccc5)c5ccccc5)CC4)cc3N2)cc1 (stereo unspecified)	-21.96%
COc1ccc(CCN2C(=O)c3[nH]nc(-c4cc(Cl)c(C)cc4O)c3C2c2ccccc2F)cc1 (stereo unspecified)	10.68%
O=C(Nc1ccccc1O)c1ccc(-c2ccc(Cl)cc2Cl)o1	-8.773%

Compound	Inhibition
CCN(CC)CCNc1ccnc2cc3ccccc3cc12.O=P(O)(O)O	3.908%
CCc1c(C)c(=N)c2ccccc2n1C.I	11.41%
Br.Cc1ccc(C)c(-c2csc(Nc3ccc(C)c(C)c3)n2)c1	-25.23%
CCOC(=O)c1cnc2ccc(OC)cc2c1NCc1ccccc1	13.76%
COc1ccc(C(=O)NC(c2ccc(Cl)cc2Cl)c2cc(Cl)c3cccnc3c2O)cc1 (stereo unspecified)	66.57%
COc1cc(CNCCc2ccc(Cl)cc2)cc(OC)c1O	5.38%
COC(=O)c1ccc(C2C3=C(O)CC(c4ccc(F)cc4)CC3=Nc3ccccc3N2C(=O)c2ccccc2)cc1 (stereo unspecified)	-18.81%
COc1ccc(C(=O)Nc2ccc(Cl)cc2C(=O)Nc2ccncc2)cc1	-23.38%
CCCCCCc1cc(O)c2c3c(c(=O)oc2c1)CCC(C)C3 (stereo unspecified)	-17.49%
OC(Cn1nnc2ccccc21)Cn1c2ccc(Br)cc2c2cc(Br)ccc21 (stereo unspecified)	-11.24%
CCOc1ccc(-n2cc(-c3ccccc3)c3c(SCc4cc(C)ccc4C)ncnc32)cc1	-2.262%
CCOc1ccc2c(c1)CN(Cc1ccc(Cl)cc1)CO2	-64.93%
CCCCNc1nc(NC(C)(C)C)nc(NC(C)(C)C)n1	20.51%
CCOc1cc(Br)c(C(C)NC(=O)c2cccc(OC)c2)cc1OCC (stereo unspecified)	-25.9%
CCn1nc(-c2ccc(C(=O)OC)cc2)nc2c(=O)n(C)c(=O)nc1-2	-16.23%
CCOc1cc2c(cc1OCC)C(c1cc(C)c(O)c(C)c1)NCC2.Cl (stereo unspecified)	13.77%
O=C(CSc1ccc2nnc(-c3cccc(F)c3)n2n1)Nc1ccc2c(c1)OCO2	-19.97%
CCOc1cc2c(cc1OCC)C(c1cc(OC)c(O)cc1Cl)NCC2 (stereo unspecified)	-16.38%
COc1ccc(CN2CCCC(C(=O)c3ccc(C(F)(F)F)cc3)C2)c(O)c1 (stereo unspecified)	-4.732%
COc1ccc2nc(C)cc(Nc3ccccc3O)c2c1	-4.901%
CCOc1ccc(CCNC(=O)c2cccs2)cc1OCC	10.2%
O=C1c2ccccc2C2=Nc3ccccc3SC(c3cccc(F)c3)C12 (stereo unspecified)	-5.793%
O=[N+]([O-])c1ccc(C=NNc2nc3ccccc3[nH]2)cc1	-55.94%
Cc1ccc(CSCc2ccc(C(=O)NC3CC3)o2)cc1	-11.49%
O=C(NCC(c1ccsc1)N1CCCCCC1)c1ccc(C(F)(F)F)cc1 (stereo unspecified)	-22.24%
CCOc1ccc(N2C(N)=NC(N)=NC2(C)C)cc1.Cl	-26.74%

Compound	Inhibition
CCCCCCn1c(=N)n(CC(O)COc2cccc(C)c2)c2ccccc21.Cl (stereo unspecified)	6.838%
O=C(Nc1ccc(Cl)cc1C(=O)Nc1ccncc1)c1ccc(Cl)cc1Cl	-3.564%
COc1ccc(C(=O)NC(c2ccccc2Cl)c2cc(Cl)c3cccnc3c2O)cc1 (stereo unspecified)	32.62%
Cc1ccc(-c2cc3c(SCC(=O)Nc4cc(C(F)(F)F)ccc4Cl)nccn3n2)cc1	-45.33%
O=C(O)C1Cc2c([nH]c3ccccc23)C(c2ccc(Cl)cc2Cl)N1 (stereo unspecified)	-71.65%
CCN(CC)c1cc(C)c2cc(NC(=O)c3cccc(OC)c3)ccc2n1	-27.53%
COc1cccc(NC(=O)[C@H](C(C)C)n2c(=O)[nH]c3ccccc3c2=O)c1	8.977%
COc1ccc(C(=O)Nc2nonc2-c2ccc(OC)c(OC)c2)cc1Cl	4.722%
C=C(C)CCC(C)N1CCC(N2CCC(C(=O)NCCc3ccccc3)CC2)CC1 (stereo unspecified)	-27.27%
COc1ccc(Nc2cc(C)nc(NCc3ccccc3)n2)cc1	-1.126%
COc1cc(C(=O)Nc2ccc(-c3nc4ccccc4[nH]3)cc2)cc(OC)c1OC	41.18%
O=C(Nc1cccc(C2=NCCN2)c1)Nc1cccc(C2=NCCN2)c1 [IMIDOCARB]	9.453%
CCCc1cc(O)c2c3c(c(=O)oc2c1)CN(C)CC3	-49.5%
COc1ccc(CCn2c(=N)c(C(=O)NCc3cccnc3)cc3c(=O)n4cccc(C)c4nc32)cc1	0.9407%
CCOc1c(Br)cc(C2C(C(=O)OC)=CN(C)C=C2C(=O)OC)cc1OC	-4.752%
Oc1c(CN2CCN(c3ccccc3F)CC2)cc(Br)c2cccnc12	61.72%
CCOC(=O)c1c(C)n(-c2ccccc2)c2ccc(OC(=O)c3cc(OC)c(OC)c(OC)c3)cc12	4.591%
Cc1ccc(OCCCCCCNCCO)c(C)c1	-13.88%
COc1ccc(-c2nonc2NC(=O)c2cccc(C)c2)cc1OC	4.698%
CCOC(=O)c1cnc2c(C)cc(C)cc2c1Nc1ccc(OC)c(OC)c1	-30.02%
FC(F)(F)c1cccc(Nc2nc(-c3ccccc3)nc3ncccc23)c1	-10.43%
COc1ccc(C2N(C)c3ccccc3N2C)cc1	-12.31%
COc1cc2cc(C(=O)Nc3ccccc3)c(N)nc2cc1OC	-19.13%
Cc1cccc(-n2ncc3c(O)nc(-n4nc(C)cc4NC(=O)c4cc5ccccc5o4)nc32)c1	82.48%
Cc1cc(C)c2nc(N3CCC(C(=O)NCCCN4CCC(N5CCCCC5)CC4)CC3)sc2c1	-56.98%
COc1ccc(/C=C2/SC(=Nc3ccccc3)NC2=O)cc1	35.48%

Compound	Inhibition
OC(CNC1CCCCC1)Cn1c2ccc(I)cc2c2cc(I)ccc21 (stereo unspecified)	25.2%
CC(=O)c1ccc(NC(=O)CSc2nc(-c3ccccc3Cl)ns2)cc1	23.33%
CCCn1c(=N)c(C(=O)NC2CCCCC2)cc2c(=O)n3cccc(C)c3nc21	-27.29%
Cc1cc(N2CCN(C3CCCC3)CC2)n2c(nc3ccccc32)c1C#N	-41.28%
CC(C)CNC(=O)c1c(N)n(CCc2ccccc2F)c2nc3ccccc3nc12	-31.92%
CCOC(=O)c1cnc2ccc(CC)cc2c1O	-16.47%
O=C(Nc1ccc(F)c(Cl)c1)Nc1ccc(Cl)c(Cl)c1	36.98%
COc1ccc(CNC(=O)c2cc3c(=O)n4ccccc4nc3n(CCc3ccccc3)c2=N)cc1	20.87%
Cc1cccc(N2C(=O)C3C(C2=O)C2(c4ccccc4)C(=O)C3(c3ccccc3)C(c3ccc4c(c3)OCO4)=C2c2ccc3c(c2)OCO3)c1 (stereo unspecified)	1.02%
COc1cc(-c2nc(-c3ccccc3)c(-c3ccccc3)[nH]2)cc(OC)c1O	-1.324%
Oc1c2c(nc3cc(-c4ccccc4)nn13)CCCC2	37.02%
O=C1CC(O)(C(F)(F)C(F)(F)F)Oc2ccccc21 (stereo unspecified)	26.51%
COCCNC(=O)c1ccc(OC2CCN(Cc3ccc(F)c(F)c3)CC2)c(Cl)c1	10.52%
CCCc1c(C)nc2ccc(Br)cc2c1O	-49.14%
Cc1ccc(Cn2c(N3CCC(C(=O)NCc4cccs4)CC3)nc3ccccc32)cc1	-4.981%
Cc1ccc(Nc2nc(N)c3ccccc3n2)cc1Cl	40.42%
CCCCOc1ccc(C(=O)Nc2cc(C)on2)cc1	-8.82%
CN1CCN(c2ncnc3c2[nH]c2ccc(Cl)cc23)CC1	-51.61%
O=C(NC1CCN(Cc2ccccc2)CC1)c1cc(-c2cccnc2)nc2ccc(Cl)cc12	-40.68%
CCOC(=O)C1=C(c2ccccc2)N=c2sc(=Cc3cc(C)n(-c4ccc(F)cc4)c3C)c(=O)n2C1c1cccc(OC)c1OC (stereo unspecified)	-76.69%
COCCN(C(=O)Cc1cccs1)C(C(=O)NCc1ccc(OC)cc1)c1ccc(C(C)C)cc1 (stereo unspecified)	3.107%
O=C(Nc1ccsc1C(=O)NC1CCCCC1)c1ccc(F)cc1	-24.81%
COc1cccc(Cn2c(Oc3ccccc3)nc3c2c(=O)n(C)c(=O)n3C)c1	-39.36%

— ChEMBL document CHEMBL3137356, “MMV Box Cryptosporidium parvum screening set”
